Assay results published in article PMC4030749 (Molecular cancer therapeutics, 2012).
Where “and” joins values, the source holds several entries; their conditions need not be identical. Equal values may be shown once.

Legend:
Sm3e/C825 bsAb [1] = assay: Binding affinity of Sm3e/C825 bsAb; details: unlabeled (no metal) DOTA
[2] = test system: LS174T and C6 tumor-bearing mice; assay: Pretargeted organ/tissue biodistribution in tumor-bearing mice; type: in vivo
Sm3e/C825 bsAb [3] = details: read-out: binding affinity (KD) to bsAb; cited from earlier work
[4] = pretargeted protocol, 24 h p.i., n=3
[5] = pretargeted protocol, 4 h p.i., n=3
[6] = pretargeted protocol, 48 h p.i., n=3

O=C(O)CN1CCN(CC(=O)O)CCN(CC(=O)O)CCN(CC(=O)O)CC1 [DOTA, 1,4,7,10-Tetraazacyclododecane-1,4,7,10-tetraacetic acid]
binding to pretargeted anti-DOTA binding sites (Sm3e/C825 bsAb [1]): no observable binding

O=C([O-])CN1CCN(CC(=O)[O-])CCN(CC(=O)[O-])CCN(CC(=O)[O-])CC1.[111In+3] [^111In-DOTA]
Biodistribution, LS174T Tumor (antigen-positive) [2, 4]: 0.5 ± 0.1 %ID/g
Tumor/organ ratio, LS174T tumor-to-Kidneys (both) [2, 4]: 1.2 ± 0.4
Kd (Sm3e/C825 bsAb [3]): 20 nM

O=C([O-])CN1CCN(CC(=O)[O-])CCN(CC(=O)[O-])CCN(CC(=O)[O-])CC1.[177Lu+3].[H+] [^177Lu-DOTA]
antigen-positive tumor uptake, pretargeted versus ^177Lu-DOTA alone ([2]; 4 h post-injection): approximately 90 fold
Biodistribution, Adipose [2, 5]: 2.78 ± 1.08 %ID/g
Biodistribution, Blood [2, 5]: 0.42 ± 0.02 %ID/g
Biodistribution, Bone (femur) [2, 5]: 1.49 ± 0.38 %ID/g
Biodistribution, C6 Tumor (antigen-negative) [2, 5]: 9.82 ± 0.35 (0.26 ± 0.08 g) %ID/g
Biodistribution, Heart [2, 5]: 0.25 ± 0.16 %ID/g
Biodistribution, Kidneys (both) [2, 5]: 0.92 ± 0.05 %ID/g
Biodistribution, LS174T Tumor (antigen-positive) [2, 5]: 7.44 ± 0.41 (0.09 ± 0.03 g) %ID/g
Biodistribution, Lg Intestine [2, 5]: 0.13 ± 0.09 %ID/g
Biodistribution, Liver [2, 5]: 0.59 ± 0.21 %ID/g
Biodistribution, Lung [2, 5]: 1.25 ± 0.43 %ID/g
Biodistribution, Muscle [2, 5]: 1.56 ± 0.56 %ID/g
Biodistribution, Skin [2, 5]: 4.68 ± 1.06 %ID/g
Biodistribution, Sm Intestine [2, 5]: 0.28 ± 0.02 %ID/g
Biodistribution, Spleen [2, 5]: 0.39 ± 0.09 %ID/g
Biodistribution, Stomach (with contents) [2, 5]: 0.21 ± 0.12 %ID/g
Tumor/organ ratio, Adipose [2, 5]: 3.2 ± 1.5
Tumor/organ ratio, Bone (femur) [2, 5]: 5.3 ± 1.6
Tumor/organ ratio, C6 Tumor [2, 5]: 0.7 ± 0.1
Tumor/organ ratio, Heart [2, 5]: 49 ± 36
Tumor/organ ratio, LS174T Tumor [2, 5]: 1
Tumor/organ ratio, LS174T tumor-to-Blood [2, 5]: 18 ± 2
Tumor/organ ratio, Lg Intestine [2, 5]: 80 ± 36
Tumor/organ ratio, Liver [2, 5]: 13.9 ± 3.7
Tumor/organ ratio, Lung [2, 5]: 7.2 ± 3.7
Tumor/organ ratio, Muscle [2, 5]: 5.3 ± 1.6
Tumor/organ ratio, Skin [2, 5]: 1.7 ± 0.4
Tumor/organ ratio, Sm Intestine [2, 5]: 27 ± 4
Tumor/organ ratio, Spleen [2, 5]: 20 ± 5
Tumor/organ ratio, Stomach (with contents) [2, 5]: 48 ± 22
Biodistribution, Adipose [2, 4]: 0.67 ± 0.12 %ID/g
Biodistribution, Blood [2, 4]: 0.04 ± 0.01 %ID/g
Biodistribution, Bone (femur) [2, 4]: 0.43 ± 0.12 %ID/g
Biodistribution, C6 Tumor (antigen-negative) [2, 4]: 4.23 ± 0.54 (0.26 ± 0.07 g) %ID/g
Biodistribution, Heart [2, 4]: 0.05 ± 0.01 %ID/g
Biodistribution, Kidneys (both) [2, 4]: 0.88 ± 0.16 %ID/g
Biodistribution, LS174T Tumor (antigen-positive) [2, 4]: 14.3 ± 1.8 %ID/g and 14.34 ± 1.83 (0.21 ± 0.10 g) %ID/g
Biodistribution, Lg Intestine [2, 4]: 0.52 ± 0.56 %ID/g
Biodistribution, Liver [2, 4]: 0.51 ± 0.23 %ID/g
Biodistribution, Lung [2, 4]: 0.37 ± 0.07 %ID/g
Biodistribution, Muscle [2, 4]: 0.41 ± 0.24 %ID/g
Biodistribution, Skin [2, 4]: 1.05 ± 0.25 %ID/g
Biodistribution, Sm Intestine [2, 4]: 0.08 ± 0.04 %ID/g
Biodistribution, Spleen [2, 4]: 0.29 ± 0.09 %ID/g
Biodistribution, Stomach (with contents) [2, 4]: 0.09 ± 0.07 %ID/g
Tumor/organ ratio, Adipose [2, 4]: 23 ± 6
Tumor/organ ratio, Bone (femur) [2, 4]: 38 ± 16
Tumor/organ ratio, C6 Tumor [2, 4]: 3.4 ± 0.3
Tumor/organ ratio, Heart [2, 4]: 323 ± 108
Tumor/organ ratio, LS174T Tumor [2, 4]: 1
Tumor/organ ratio, LS174T tumor-to-Blood [2, 4]: 380 ± 90
Tumor/organ ratio, Lg Intestine [2, 4]: 83 ± 53
Tumor/organ ratio, Liver [2, 4]: 33 ± 11
Tumor/organ ratio, Lung [2, 4]: 39 ± 3
Tumor/organ ratio, Muscle [2, 4]: 57 ± 41
Tumor/organ ratio, Skin [2, 4]: 14 ± 2
Tumor/organ ratio, Sm Intestine [2, 4]: 217 ± 76
Tumor/organ ratio, Spleen [2, 4]: 52 ± 12
Tumor/organ ratio, Stomach (with contents) [2, 4]: 252 ± 119
Biodistribution, Adipose [2, 6]: 0.60 ± 0.29 %ID/g
Biodistribution, Bone (femur) [2, 6]: 0.24 ± 0.10 %ID/g
Biodistribution, C6 Tumor (antigen-negative) [2, 6]: 2.89 ± 2.28 (0.28 ± 0.13 g) %ID/g
Biodistribution, Heart [2, 6]: 0.07 ± 0.03 %ID/g
Biodistribution, Kidneys (both) [2, 6]: 0.62 ± 0.19 %ID/g
Biodistribution, LS174T Tumor (antigen-positive) [2, 6]: 13.44 ± 3.25 (0.49 ± 0.09 g) %ID/g
Biodistribution, Lg Intestine [2, 6]: 0.11 ± 0.04 %ID/g
Biodistribution, Liver [2, 6]: 0.56 ± 0.35 %ID/g
Biodistribution, Lung [2, 6]: 0.21 ± 0.04 %ID/g
Biodistribution, Muscle [2, 6]: 0.15 ± 0.07 %ID/g
Biodistribution, Skin [2, 6]: 0.71 ± 0.20 %ID/g
Biodistribution, Sm Intestine [2, 6]: 0.14 ± 0.11 %ID/g
Biodistribution, Spleen [2, 6]: 0.64 ± 0.60 %ID/g
Biodistribution, Stomach (with contents) [2, 6]: 0.22 ± 0.24 %ID/g
Tumor/organ ratio, Adipose [2, 6]: 28 ± 13
Tumor/organ ratio, Bone (femur) [2, 6]: 60 ± 19
Tumor/organ ratio, C6 Tumor [2, 6]: 10 ± 9
Tumor/organ ratio, Heart [2, 6]: 244 ± 85
Tumor/organ ratio, LS174T Tumor [2, 6]: 1
Tumor/organ ratio, Lg Intestine [2, 6]: 128 ± 16
Tumor/organ ratio, Liver [2, 6]: 32 ± 13
Tumor/organ ratio, Lung [2, 6]: 63 ± 6
Tumor/organ ratio, Muscle [2, 6]: 105 ± 40
Tumor/organ ratio, Skin [2, 6]: 20 ± 8
Tumor/organ ratio, Sm Intestine [2, 6]: 183 ± 129
Tumor/organ ratio, Spleen [2, 6]: 40 ± 21
Tumor/organ ratio, Stomach (with contents) [2, 6]: 276 ± 236
Kd (Sm3e/C825 bsAb [3]): 0.4 nM
